Measured values: article PMC6264499, “In silico identification and experimental validation of hits active against KPC-2 β-lactamase” (PLoS ONE, 2018)

Legend:
recombinant KPC-2 [1] = biological target: T1, recombinant KPC-2 (Klebsiella pneumoniae, UniProt Q9F663); experiment: KPC-2 inhibition assay, CENTA as reporter substrate; type: biochemical
T1 construct: made in house; host or cells: E. coli BL21 (DE3)
Method: (§1) The blaKPC-2 gene was kindly provided by Prof. Sergei Vakulenko (University of Notre Dame du Lac, Indiana, USA) and cloned as already reported and transformed into competent E.coli BL21 (DE3) cells for protein expression. 50 mL of Tryptic Soy Broth (TSB) (50 mg/L kanamycin) were inoculated with fresh colonies and grown at 37°C. 4 mL of the overnight culture was used to inoculate 1.3 L of TSB (50 mg/L kanamycin) grown at 37°C with shaking to an optical density of 0.5 measured at 600 nm. Then expression of recombinant bla gene was induced by adding 1.0 mM IPTG (isopropyl-D-thiogalactopyranoside) and the cells were again allowed to grow at 20°C overnight. Bacteria were harvested by centrifugation at 4000 rpm for 20 minutes. The pelleted cells were resuspended in Tris-HCl 50 mM pH 7.4–7.5. Periplasmatic proteins were extracted as reported in the pET System Manual (TB055 10th Edition Rev. B 0403) and subsequently dialyzed in sodium acetate buffer (50 mM, pH 5.0). The protein was conveniently purified in a single step using a Macro-Prep High S resin and eluted using sodium acetate 50 mM pH 5.0 and a sodium chloride (NaCl) linear gradient from 100 to 500 mM. The purified protein was dialyzed overnight in sodium phosphate buffer 50 mM, pH 7.0 [31, 32].
(§2) The hydrolytic activity of KPC-2 was measured using the β-lactam substrates CENTA (100 uM, KM 70 uM) or nitrocefin (114 uM, KM 36 μM) in reaction buffer consisting of 50 mM of PB at pH 7.0 at 25°C with 0.01% v/v Triton X-100 to avoid compound aggregation and promiscuous inhibition.[33] Reactions were monitored using a Beckmann DU640 spectrophotometer at […] for CENTA and 480 nm wavelength for nitrocefin [34]. The test compounds were synthesized as described below or purchased from Enamine, TimTec, Vitas-M, ChemBridge, Otava, Life Chemicals or Apollo Scientific and assayed without further purification. Compounds were dissolved in dimethyl sulfoxide (DMSO) to a concentration of 25 mM and stored at -20°C. The highest concentration at which the compounds were tested was up to 1 mM (depending on their solubility). All experiments were performed in duplicate and the error never exceeded 5%. The reaction was typically initiated by adding KPC-2 to the reaction buffer last. To control for incubation effects, protein was added to the reaction buffer first, and the reaction was initiated by the addition of reporter substrate after 10 minutes of enzyme-compound incubation.
Fig 4 Inhibitory activity of compounds selected from virtual screening. ^[a]Assays were performed in duplicate (errors were less than 5%) with CENTA as reporter substrate (100 μM, km 70 μM). Kinetic were monitored at 25° by following the absorbance variation at λ = 405 nm. ^[b] If no IC50 has been measured, percent inhibition at the highest tested concentration is given in parentheses. For example, > 0.50 (26%) implies that the highest concentration tested was 0.50 mM; at this concentration, the enzyme was inhibited by 26%. Therefore, IC50> 0.50 mM. When % Inhibition was below 10% No Inibition (NI) is reported. ^[c]Assays were run after 10’ incubation of the inhibitor with KPC-2. Reaction was started by the addition of CENTA. […] 0 (11) | 32a: IC50 mM ^[a,b]: 1.24
Competitive inhibition mechanism and the Ki for compound 9a was determined by Lineweaver–Burk (LB) and Dixon plots.

recombinant KPC-2 [2] = biological target: T1, recombinant KPC-2; experiment: KPC-2 inhibition assay, nitrocefin as reporter substrate; type: biochemical; conditions: for IC50: nitrocefin 114.28 μM (Km 36 μM), 25°, 485 nm
Method: as §1, §2
Kinetic were monitored at 25° by following the absorbance variation at λ = 485 nm. ^[b] If no IC50 has been measured, percent inhibition at the highest tested concentration is given in parentheses. […] When % Inhibition was below 10% No Inhibition (NI) is reported. TEXT PRINTED IN THE PICTURE: 11a: IC50 mM [a,b]: 0.036 | 1b: IC50 mM [a,b]: > 0.2 (25) | 2b: IC50 mM [a,b]: >0.6 (23) | 3b: IC50 mM [a,b]: Not tested not soluble | 4b: IC50 mM [a,b]: > 0.2 (16) | 5b: IC50 mM [a,b]: > 0.2 (13) | 6b: IC50 mM [a,b]: NI at 0.2 | 7b: IC50 mM [a,b]: >1.0 (30) | 8b: IC50 mM [a,b]: > 1.0 (37) | 9b: IC50 mM [a,b]: NI at 0.5 | 10b: IC50 mM [a,b]: NI at 0.5 | 11b: IC50 mM [a,b]: > 1.0 (37) | 12b: IC50 mM [a,b]: NI at 0.5 | 13b: IC50 mM [a,b]: NI at 0.5 | 14b: IC50 mM [a,b]: >500 (20) DOUBTS OF THE COPYIST ABOUT THIS PICTURE: column head: raised note printed very small, read as [a,b]

Kpn 53A8 = experiment: MIC of meropenem, alone or 1:1 with compounds, KPC-2 clinical strain; type: cell-based, K. pneumoniae; conditions: strain Kpn 53A8
Method: The antimicrobial activity of the best hits 9a and 11a and their derivatives was studied in bacterial cell cultures to investigate their ability to cross the outer membrane reaching the periplasmic space, where KPC-2 is secreted and confined in Gram negative bacteria. Compounds were tested for synergy with the β-lactam antibiotic meropenem against four K. pneumoniae clinical strains, isolated from different patients at the Hospital Universitario Son Espases, Palma de Mallorca, Spain. […] The three additional strains harbored the blaKPC-2 gene and were resistant to meropenem (Table 2). […] However, against strain Kpn 53A8 the MIC value was lowered by a factor of two when meropenem was combined with compounds 32a, 1b, 2b, 5b and 6b while in combination with compound 11a the MIC value was reduced by 4 fold.

[3] = CENTA 100 μM (km 70 μM), 25°, 405 nm, no pre-incubation, read-out: IC50
[4] = read-out: percent inhibition at the highest tested concentration
[5] = CENTA 100 μM, after 10' incubation of the inhibitor with KPC-2, read-out: IC50

T1 sequence (Q9F663 25-293, looked up): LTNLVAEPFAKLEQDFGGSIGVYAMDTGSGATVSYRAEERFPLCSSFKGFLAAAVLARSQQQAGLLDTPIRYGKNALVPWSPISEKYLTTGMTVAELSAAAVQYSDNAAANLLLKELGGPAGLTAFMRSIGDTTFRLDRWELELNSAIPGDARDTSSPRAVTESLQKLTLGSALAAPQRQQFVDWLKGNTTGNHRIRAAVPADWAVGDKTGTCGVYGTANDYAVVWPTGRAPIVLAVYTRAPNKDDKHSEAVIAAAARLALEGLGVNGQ

## Cc1nn(CC(=O)O)c(C)c1NS(=O)(=O)CC(F)(F)F [29a]
Recombinant KPC-2 [1]; [3]
  IC50: > 1000 µM
Recombinant KPC-2 [1]; [4]
  inhibition at 1000 µM: 15%

## Brc1cc2c(cc1-c1nnn[nH]1)OCO2 [12a]
Recombinant KPC-2 [1]; [5]
  IC50: 700 µM

## NS(=O)(=O)c1ccc(Cl)c(S(=O)(=O)Nc2cccc(-c3nnn[nH]3)c2)c1 [13b]
Recombinant KPC-2 [2]; [4]
  inhibition at 500 µM: < 10%

## O=c1ccc(O)nn1-c1nnn[nH]1 [17a]
Recombinant KPC-2 [1]; [3]
  IC50: > 1000 µM
Recombinant KPC-2 [1]; [4]
  inhibition at 1000 µM: 23%

## CCOc1ccc(NS(C)(=O)=O)cc1 [7a]
Recombinant KPC-2 [1]; [3]
  IC50: > 1000 µM
Recombinant KPC-2 [1]; [4]
  inhibition at 1000 µM: 12%

## CC(=O)Nc1ccc(S(=O)(=O)Nc2cccc(-c3nnn[nH]3)c2)cc1 [4b, N-(4-(N-(3-(1H-tetrazol-5-yl)phenyl)sulfamoyl)phenyl)acetamide]
Recombinant KPC-2 [2]
  IC50: > 200 µM
Recombinant KPC-2 [2]; [4]
  inhibition at 200 µM: 16%

## O=[N+]([O-])c1cccc(S(=O)(=O)Nc2cccc(-c3nnn[nH]3)c2)c1 [2b, N-(3-(1H-tetrazol-5-yl)phenyl)-3-nitrobenzenesulfonamide]
Recombinant KPC-2 [2]
  IC50: > 600 µM
Recombinant KPC-2 [2]; [4]
  inhibition at 600 µM: 23%
Kpn 53A8
  fold reduction of meropenem MIC in combination with compound: two

## Cn1c(=O)c2n[nH]c(=O)nc2n(C)c1=O [14a]
Recombinant KPC-2 [1]
  IC50: > 1000 µM
Recombinant KPC-2 [1]; [4]
  inhibition at 1000 µM: 26%

## Cn1cc(-c2cc(C(=O)O)no2)cn1 [4a]
Recombinant KPC-2 [1]; [3]
  IC50: > 250 µM
Recombinant KPC-2 [1]; [4]
  inhibition at 250 µM: 12%

## O=C(Nc1cccc(-c2nnn[nH]2)c1)c1cccc(F)c1 [11a, N-(3-(1H-tetrazol-5-yl)phenyl)-3-fluorobenzamide]
Kpn 53A8
  fold reduction of meropenem MIC in combination with compound: 4 fold
Recombinant KPC-2 [1]; [5]
  IC50: 36 µM
Recombinant KPC-2 [1]; Cheng-Prusoff equation from IC50, assuming competitive inhibition, read-out: Ki (calculated)
  Ki: 14.8 µM
Recombinant KPC-2 [1]; vs KPC-2
  ligand efficiency (LE): 0.28 kcal/mol/non-hydrogen atom
  mode of inhibition: competitive inhibitors

## COCc1nc2cc(NS(C)(=O)=O)ccc2o1 [21a]
Recombinant KPC-2 [1]; [3]
  IC50: > 1000 µM
Recombinant KPC-2 [1]; [4]
  inhibition at 1000 µM: 12%

## O=C(NCc1nnnn1-c1ccccc1)c1cccnc1O [25a]
Recombinant KPC-2 [1]; [3]
  IC50: > 400 µM
Recombinant KPC-2 [1]; [4]
  inhibition at 400 µM: 26%

## O=C(O)Cc1c[nH]c2ncnn2c1=O [30a]
Recombinant KPC-2 [1]; [4]
  inhibition at 1000 µM: < 10%

## COc1ccc(-c2cn[nH]c2C(=O)O)c(OC)c1 [2a]
Recombinant KPC-2 [1]; [3]
  IC50: > 500 µM
Recombinant KPC-2 [1]; [4]
  inhibition at 500 µM: 38%

## O=S(=O)(Nc1cccc(-c2nnn[nH]2)c1)c1ccc(Cl)cc1 [6b, N-(3-(1H-tetrazol-5-yl)phenyl)-4-chlorobenzenesulfonamide]
Recombinant KPC-2 [2]; [4]
  inhibition at 200 µM: < 10%
Kpn 53A8
  fold reduction of meropenem MIC in combination with compound: two

## NC(=O)c1ccc(-c2nnn[nH]2)cc1 [13a]
Recombinant KPC-2 [1]; [4]
  inhibition at 250 µM: < 10%

## Cc1c(Br)cc(S(=O)(=O)Nc2cccc(-c3nnn[nH]3)c2)cc1[N+](=O)[O-] [9b]
Recombinant KPC-2 [2]; [4]
  inhibition at 500 µM: < 10%

## Cc1c(-c2cc(C(=O)O)no2)cnn1C [3a]
Recombinant KPC-2 [1]; [3]
  IC50: > 250 µM
Recombinant KPC-2 [1]; [4]
  inhibition at 250 µM: 13%

## COc1ccc2nc(C(=O)O)[nH]c2c1 [19a]
Recombinant KPC-2 [1]; [3]
  IC50: 880 µM
Recombinant KPC-2 [1]; IC50 vs KPC-2 relative to compound 9a
  fold less active than 9a: 6 fold

## O=c1c2ccc(S(=O)(=O)Nc3cccc(-c4nnn[nH]4)c3)cc2nc2n1CCCCC2 [12b]
Recombinant KPC-2 [2]; [4]
  inhibition at 500 µM: < 10%

## O=C(Nc1cccc(-c2nn[nH]n2)c1)c1cccs1 [10a]
Recombinant KPC-2 [1]; [5]
  IC50: 70 µM

## CC(=O)Nc1cccc(-c2nnn[nH]2)c1 [8a]
Recombinant KPC-2 [1]; [3]
  IC50: > 500 µM
Recombinant KPC-2 [1]; [4]
  inhibition at 500 µM: 37%
